Data as given in ChEMBL document CHEMBL4000164, “(+)-and (-)-Phenazocine enantiomers: Evaluation of their dual opioid agonist/σ1 antagonist properties and antinociceptive effects” (Eur J Med Chem, 2017).
Activity calls are given as the source filed them. The rule behind the calls is not given here.

Key:
Mus musculus [1] = experiment: Antinociceptive activity in CD-1 mouse mechanical stimulus-induced nociception model assessed as struggle response latency time at 0.5 mg/kg, sc administered 30 mins prior to test in presence of sigma1 receptor agonist PRE-084 by paw pressure test; assay type: functional, organism-based
Mus musculus [2] = experiment: Antinociceptive activity in CD-1 mouse mechanical stimulus-induced nociception model assessed as struggle response latency at 0.25 mg/kg, sc administered 30 mins prior to test in presence of sigma1 receptor agonist PRE-084 by paw pressure test; assay type: functional, organism-based
Mus musculus [3] = experiment: Antinociceptive activity in CD-1 mouse mechanical stimulus-induced nociception model assessed as struggle response latency time at 0.5 mg/kg, sc administered 30 mins prior to test by paw pressure test; assay type: functional
Mus musculus [4] = experiment: Antinociceptive activity in CD-1 mouse mechanical stimulus-induced nociception model assessed as struggle response latency at 0.25 mg/kg, sc administered 30 mins prior to test in presence of peripherally restricted opioid antagonist Nx-M by paw pressure test; assay type: functional, organism-based
Mus musculus [5] = experiment: Antinociceptive activity in CD-1 mouse mechanical stimulus-induced nociception model assessed as struggle response latency at 0.25 mg/kg, sc administered 30 mins prior to test in presence of centrally penetrant opioid antagonist Nx by paw pressure test; assay type: functional, organism-based
Mus musculus [6] = experiment: Antinociceptive activity in CD-1 mouse mechanical stimulus-induced nociception model assessed as struggle response latency at 0.125 to 0.5 mg/kg, sc administered 30 mins prior to test by paw pressure test; assay type: functional, organism-based
Mus musculus [7] = experiment: Antinociceptive activity in CD-1 mouse mechanical stimulus-induced nociception model assessed as struggle response latency time at 0.5 mg/kg, sc administered 30 mins prior to test in presence of peripherally restricted opioid antagonist Nx-M by paw pressure test; assay type: functional, organism-based
Mus musculus [8] = experiment: Antinociceptive activity in CD-1 mouse mechanical stimulus-induced nociception model assessed as struggle response latency time at 0.5 mg/kg, sc administered 30 mins prior to test in presence of centrally penetrant opioid antagonist Nx by paw pressure test; assay type: functional, organism-based
Mu-type opioid receptor [9] = molecular target: Mu-type opioid receptor (Rattus norvegicus, UniProt P33535); experiment: Displacement of [3H] DAMGO from mu opioid receptor in Sprague-Dawley rat whole brain membranes after 2.5 hrs by liquid scintillation method; parameters: species or system Membrane
Mu-type opioid receptor (Rattus norvegicus, UniProt P33535), sequence (P33535 whole entry): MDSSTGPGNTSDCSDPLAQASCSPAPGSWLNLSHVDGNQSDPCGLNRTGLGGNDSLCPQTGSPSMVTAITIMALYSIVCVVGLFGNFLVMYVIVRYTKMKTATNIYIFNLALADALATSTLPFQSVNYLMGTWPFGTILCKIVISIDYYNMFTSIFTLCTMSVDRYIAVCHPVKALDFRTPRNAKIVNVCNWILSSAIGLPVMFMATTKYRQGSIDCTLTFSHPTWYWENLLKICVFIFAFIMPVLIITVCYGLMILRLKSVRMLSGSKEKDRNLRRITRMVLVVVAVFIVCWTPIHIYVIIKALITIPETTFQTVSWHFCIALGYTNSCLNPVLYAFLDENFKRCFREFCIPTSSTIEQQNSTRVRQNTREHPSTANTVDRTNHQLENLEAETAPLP

[10] = molecular target: Delta-type opioid receptor (Homo sapiens, UniProt P41143); experiment: Binding affinity to delta opioid receptor (unknown origin)
Delta-type opioid receptor (Homo sapiens, UniProt P41143), sequence (P41143 whole entry): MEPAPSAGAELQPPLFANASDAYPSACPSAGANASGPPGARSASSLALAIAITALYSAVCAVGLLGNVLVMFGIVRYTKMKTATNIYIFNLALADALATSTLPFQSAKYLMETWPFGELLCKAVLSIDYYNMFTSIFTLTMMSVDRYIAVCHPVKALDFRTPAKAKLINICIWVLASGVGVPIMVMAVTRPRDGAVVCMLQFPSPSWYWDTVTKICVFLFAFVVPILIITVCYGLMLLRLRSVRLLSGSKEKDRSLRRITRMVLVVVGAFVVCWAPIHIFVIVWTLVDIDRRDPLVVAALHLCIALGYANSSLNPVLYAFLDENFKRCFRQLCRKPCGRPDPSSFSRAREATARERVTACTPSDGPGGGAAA

[11] = molecular target: Kappa-type opioid receptor (Homo sapiens, UniProt P41145); experiment: Binding affinity to kappa opioid receptor (unknown origin)
Kappa-type opioid receptor (Homo sapiens, UniProt P41145), sequence (P41145 whole entry): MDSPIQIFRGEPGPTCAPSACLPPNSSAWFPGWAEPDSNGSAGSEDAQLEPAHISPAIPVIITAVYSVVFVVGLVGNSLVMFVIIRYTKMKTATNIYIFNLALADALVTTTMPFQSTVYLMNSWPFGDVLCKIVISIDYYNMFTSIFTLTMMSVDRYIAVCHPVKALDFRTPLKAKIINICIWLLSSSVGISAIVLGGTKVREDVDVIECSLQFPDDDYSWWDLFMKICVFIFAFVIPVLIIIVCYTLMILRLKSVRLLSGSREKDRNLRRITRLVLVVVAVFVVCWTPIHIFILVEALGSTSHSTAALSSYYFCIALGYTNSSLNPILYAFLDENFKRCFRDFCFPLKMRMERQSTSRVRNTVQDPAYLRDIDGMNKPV

[12] = molecular target: T1, Kappa-type opioid receptor (Cavia porcellus, UniProt P41144); experiment: Displacement of [3H]-Ethylketazocine from kappa opioid receptor in guinea pig brain membranes after 40 mins; assay type: cell membranes, Membrane
T1 sequence (P41144 whole entry): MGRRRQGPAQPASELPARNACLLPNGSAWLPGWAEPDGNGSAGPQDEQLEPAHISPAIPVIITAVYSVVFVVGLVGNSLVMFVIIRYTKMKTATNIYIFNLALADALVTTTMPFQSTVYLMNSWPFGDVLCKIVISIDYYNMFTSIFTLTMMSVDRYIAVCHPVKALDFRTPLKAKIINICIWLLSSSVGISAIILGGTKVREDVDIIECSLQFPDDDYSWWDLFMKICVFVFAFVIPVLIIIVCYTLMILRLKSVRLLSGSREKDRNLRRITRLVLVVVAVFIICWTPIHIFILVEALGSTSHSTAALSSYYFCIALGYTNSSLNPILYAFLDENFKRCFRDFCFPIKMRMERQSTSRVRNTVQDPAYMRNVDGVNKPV

[13] = molecular target: Sigma non-opioid intracellular receptor 1 (Mus musculus, UniProt O55242); experiment: Displacement of [3H]-(+)-pentazocin from sigma1 receptor in mouse brain P2 membranes after 240 mins by liquid scintillation counting method; assay type: cell membranes
Sigma non-opioid intracellular receptor 1, sequence (O55242 whole entry): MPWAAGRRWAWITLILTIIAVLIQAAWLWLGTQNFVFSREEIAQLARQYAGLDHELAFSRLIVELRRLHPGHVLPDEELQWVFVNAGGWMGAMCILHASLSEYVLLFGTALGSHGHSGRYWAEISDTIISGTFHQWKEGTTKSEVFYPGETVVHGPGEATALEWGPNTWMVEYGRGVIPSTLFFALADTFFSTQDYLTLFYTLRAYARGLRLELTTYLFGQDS

[14] = Displacement of [3H]-[D-Ala2,D-Leu5]enkephalin from delta opioid receptor in guinea pig brain membranes after 40 mins; assay type: cell membranes, Cavia porcellus, Membrane
Mu-type opioid receptor [15] = molecular target: Mu-type opioid receptor (Cavia porcellus, UniProt P97266); experiment: Displacement of [3H]-[D-Ala2,MePhe4Gly-ol5]enkephalin from mu opioid receptor in guinea pig brain membranes after 40 mins; assay type: cell membranes, Membrane
Mu-type opioid receptor (Cavia porcellus, UniProt P97266), sequence (P97266 whole entry): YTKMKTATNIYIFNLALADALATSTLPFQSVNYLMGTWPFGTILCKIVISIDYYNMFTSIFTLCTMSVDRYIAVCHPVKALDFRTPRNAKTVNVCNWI

Mus musculus [16] = experiment: Antinociceptive activity in CD-1 mouse mechanical stimulus-induced nociception model assessed as struggle response latency at 4 mg/kg, sc administered 30 mins prior to test in presence of sigma1 receptor agonist PRE-084 by paw pressure test; assay type: functional, organism-based
Mus musculus [17] = experiment: Antinociceptive activity in CD-1 mouse mechanical stimulus-induced nociception model assessed as struggle response latency at 4 mg/kg, sc administered 30 mins prior to test in presence of centrally penetrant opioid antagonist Nx by paw pressure test; assay type: functional, organism-based
[18] = molecular target: Delta-type opioid receptor (Rattus norvegicus, UniProt P33533); experiment: Displacement of [3H]DPDPE from delta opioid receptor in Sprague-Dawley rat brain membranes by liquid scintillation counter method; assay type: cell membranes, Membrane
Delta-type opioid receptor (Rattus norvegicus, UniProt P33533), sequence (P33533 whole entry): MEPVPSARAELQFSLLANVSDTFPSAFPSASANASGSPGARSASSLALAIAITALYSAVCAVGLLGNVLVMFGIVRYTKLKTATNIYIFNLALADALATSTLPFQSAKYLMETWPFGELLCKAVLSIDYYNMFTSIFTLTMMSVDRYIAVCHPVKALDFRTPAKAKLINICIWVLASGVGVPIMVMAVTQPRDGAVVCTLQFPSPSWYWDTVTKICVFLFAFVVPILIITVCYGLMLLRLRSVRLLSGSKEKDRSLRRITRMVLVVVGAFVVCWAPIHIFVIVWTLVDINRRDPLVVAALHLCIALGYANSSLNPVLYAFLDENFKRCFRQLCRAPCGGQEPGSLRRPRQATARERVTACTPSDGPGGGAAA

Mus musculus [19] = experiment: Antinociceptive activity in CD-1 mouse mechanical stimulus-induced nociception model assessed as struggle response latency at 4 mg/kg, sc administered 30 mins prior to test in presence of peripherally restricted opioid antagonist Nx-M by paw pressure test; assay type: functional, organism-based
[20] = molecular target: T1, Kappa-type opioid receptor; experiment: Displacement of [3H]U69,593 from kappa opioid receptor in guinea pig brain membranes by liquid scintillation counter method; assay type: cell membranes, Membrane
Mus musculus [21] = experiment: Antinociceptive activity in CD-1 mouse mechanical stimulus-induced nociception model assessed as struggle response latency at 2 to 8 mg/kg, sc administered 30 mins prior to test by paw pressure test; assay type: functional, organism-based
Mus musculus [22] = experiment: Antinociceptive activity in sc dosed CD-1 mouse mechanical stimulus-induced nociception model assessed as struggle response latency administered 30 mins prior to test by paw pressure test; assay type: functional, organism-based
Mus musculus [23] = experiment: Antinociceptive activity in CD-1 mouse mechanical stimulus-induced nociception model assessed as struggle response latency at 8 mg/kg, sc administered 30 mins prior to test in presence of sigma1 receptor agonist PRE-084 by paw pressure test; assay type: functional, organism-based
Mus musculus [24] = experiment: Antinociceptive activity in CD-1 mouse mechanical stimulus-induced nociception model assessed as struggle response latency at 8 mg/kg, sc administered 30 mins prior to test in presence of peripherally restricted opioid antagonist Nx-M by paw pressure test; assay type: functional, organism-based
Mus musculus [25] = experiment: Analgesic activity in mouse administered subcutaneously by hot plate assay; details: sc
Mus musculus [26] = experiment: Antinociceptive activity in CD-1 mouse mechanical stimulus-induced nociception model assessed as struggle response latency at 8 mg/kg, sc administered 30 mins prior to test in presence of centrally penetrant opioid antagonist Nx by paw pressure test; assay type: functional, organism-based

With `C[C@H]1[C@H]2Cc3ccc(O)cc3[C@]1(C)CCN2CCc1ccccc1` the Activity (Mus musculus [1]) was “inactive”, the Activity (Mus musculus [2]) was “inactive” and the Time (Mus musculus [3]) was 20 s. For the same compound, the Activity (Mus musculus [4]) was “inactive”, the Activity (Mus musculus [5]) was “inactive” and the Activity (Mus musculus [6]) was “Active”. For the same compound, the Activity (Mus musculus [7]) was “inactive”, the Activity (Mus musculus [8]) was “inactive” and the Ki (Mu-type opioid receptor [9]) was 61.7 nM.

Work on `O=C(OCCN1CCOCC1)C1(c2ccccc2)CCCCC1` yielded a Ki [10] of over 4000 nM and a Ki [11] of over 4000 nM.

Compound `C=CC[N+]1(C)CC[C@]23c4c5ccc(O)c4O[C@H]2C(=O)CC[C@@]3(O)[C@H]1C5` (some centres not stated) [NALOXONE METHIODIDE] has a Ki [12] of 187 nM, a Ki [13] of over 1000 nM and a Ki [14] of 291 nM. It also gave a Ki (Mu-type opioid receptor [15]) of 18.2 nM.

In the case of `C[C@@H]1[C@@H]2Cc3ccc(O)cc3[C@@]1(C)CCN2CCc1ccccc1`, the Activity (Mus musculus [16]) is reported as “inactive”, the Activity (Mus musculus [17]) is reported as “inactive” and the Ki [18] is reported as 123 nM. The Activity (Mus musculus [19]) was “inactive”, the Ki [20] was 175 nM and the Activity (Mus musculus [21]) was “Active”. The Ki (Mu-type opioid receptor [9]) was 3.9 nM.

For `CN1CC[C@]23c4c5ccc(O)c4O[C@H]2[C@@H](O)C=C[C@H]3[C@H]1C5` [MORPHINE], the Activity (Mus musculus [22]) was “Dose-dependent effect”, the Activity (Mus musculus [23]) was “Active” and the Activity (Mus musculus [24]) was “Active”. For the same compound, the ED50 (Mus musculus [25]) was 6.7 mg/kg and the Activity (Mus musculus [26]) was “inactive”.
